Columns and labels:
[1] = tested on: GLP-2 positive cells in the small intestine (jejunum and ileum); experiment: Quantification of GLP-2 positive cells in villi and crypts of jejunum and ileum of broiler chickens fed supplemented feed; type: in vivo, Ross broiler chickens; conditions: 5.6 g/kg feed from day of hatch, sampled at age of ten days
Source text: […] one-day-old Ross broiler chickens were obtained from a local hatchery. The animals were divided at random in two equal groups: one experimental groups, and one control group. The groups were housed on wood shavings in separate containers of 0.96 m^2. Commercial feed and drinking water was provided ad libitum, From the day of hatch, the experimental group received feed supplemented with glyceryl monovalerate (MV; Perstorp, 5.6 g/kg feed), according to the suppliers recommendations (in-feed supplementation). The control group, received unsupplemented feed. At the age of ten days, the animals were killed by injecting an intravenous overdose of pentobarbital and sampling was performed. Samples (1 cm in length) of jejunum and ileumn were submerged in 4% phosphate buffered (wt/vol) formaldehyde within 15 minutes after euthanasia. […] For each animal, the area of 10 randomly chosen villi and 30 randomly chosen crypts was measured for jejunum and ileum using LAS V3.8 software (Leica Microsystems GmbH, Wetzlar, Germany). In total 80 areas per bird were analysed. For every defined area, the number of cells was counted at magnification ×400. Only cells with a detectable nucleus were counted. The average number of cells per area villus or crypt (cells/mm^2) was calculated for each bird. […]

Salmonella = experiment: In vitro Salmonella growth inhibition; type: cell-based
HilA expression = experiment: Invasive gene expression (HilA expression) in Salmonella; type: cell-based

CCCCC(=O)OCC(O)CO (stereo not shown) [glyceryl monovalerate]
average number of GLP-2 positive cells in the villi of jejunum and ileum, experimental group vs control group ([1]; P≤0.001, FIG. 1): statistically higher | average numbers of GLP2-positive cells in the crypts of jejunum and ileum, experimental group vs control group ([1]; P≤0.05, FIG. 2): statistically higher | inhibition of Salmonella growth (Salmonella): effective inhibitor | invasive gene expression (HilA expression) in Salmonella (HilA expression): down-regulated

From patent publication US10576052B2, “Composition preventing bacterial inflammation in monogastric animals” (PERSTORP AB, priority 2015, dated 2020)
